Laboratory results: publication PMC11111895, “Identification of a dCache-type chemoreceptor in Campylobacter jejuni that specifically mediates chemotaxis towards methyl pyruvate” (Frontiers in Microbiology, 2024)
Read-outs that look alike come from different tables or passages of the source.

Columns and labels:
[1] = biological target: Tlp11-LBD homologue (WP_199770133.1, residues 31-330); experiment: MST of Tlp11-LBD homologue; assay type: binding, Helicobacter mesocricetorum; details: H. mesocricetorum LBD
Procedure: (§1) The His-tag dye (MO-L018 RED-tris-NTA, NanoTemper, Germany) was adjusted to a final concentration of 25 nM and used to label the purified protein with a His-tag. The compound was diluted to a series of concentrations in phosphate-buffered saline ([Duan et al., 2023]) with 0.05% Tween 20 (PBS-T) buffer and mixed in a ratio of 1:1 with protein. The mixtures were loaded into capillaries (Monolith™ Series capillaries, NanoTemper) by means of capillary action. Thermophoresis was measured using a Monolith™ NT.115 (NanoTemper) instrument, with 40% excitation and 40% MST power configuration. The time-traces of changes in fluorescence, which reflected the thermophoretic movement of labeled protein affected by different concentrations of compound were recorded, and the dose–response curves were fitted with the ‘temperature jump and thermophoresis’ mode. Data analysis was performed using MO. Affinity Analysis version 2.3 (NanoTemper) and Prism version 8.0.2 (GraphPad Software, United States).
(§2) To evaluate whether these potential Tlp11-LBD homologues could bind to methyl pyruvate, we conducted a structural analysis of the LBDs of six chemoreceptors from C. coli, H. equorum, H. himalayensis, H. mesocricetorum, H. ganmani, and C. upsaliensis using Alphafold 2. […]

[2] = biological target: Tlp11-LBD homologue (WP_066386874.1, residues 33-320); experiment: MST of Tlp11-LBD homologue; assay type: binding, Helicobacter himalayensis; details: H. himalayensis LBD
Procedure: as §1, §2

[3] = biological target: Tlp11-LBD V318A; experiment: MST of Tlp11-LBD mutant V318A; assay type: binding, C. jejuni ATCC 33560; details: max ligand 2.5 mM
Procedure: as §1
(§3) In order to confirm the contribution of L264, N268, I276, Y291, V318, and T320 to the binding to methyl pyruvate, we generated Tlp11-LBD proteins with an alanine point mutation at individual residues, to obtain the mutant proteins L264A, N268A, I276A, Y291A, V318A, and T320A, and then analyzed the binding affinities of methyl pyruvate to these mutants using MST. […]

[4] = tested on: Tlp11[1-343]-PhoQ[202-486] (Tlp343PhoQ202); experiment: Hybrid kinase Tlp11-PhoQ GFP reporter assay; assay type: cell-based, E. coli MG1655/ΔPhoQ; details: stimulation for 40 min
Procedure: The reporter plasmid pUA66-PmgtLA-GFP and the plasmid encoding the hybrid kinase were together transformed into E. coli MG1655/ΔPhoQ strain. E. coli cells containing the reporter and Tlp11-PhoQ chimera were incubated in Medium A, at 37°C, with shaking (200 rpm), until an OD600 of 0.4 was attained, following which different concentrations of methyl pyruvate were added to the medium and the cells were incubated for 40 min. The fluorescence intensity of the cells was monitored using a plate reader (Varioskan™ LUX, Life Technologies) equipped with a 488 nm laser and a 528/12 bandpass filter. The acquired data were analyzed using Prism 8.0.2.
To construct the signal input module, we fused the Tlp11-LBD with the PhoQ cytoplasmic region, to design the Tlp11-PhoQ hybrid kinases (Supplementary Figure S6), Tlp11[1-337]-PhoQ[200-486] (Tlp337PhoQ200), Tlp11[1-339]-PhoQ[200-486] (Tlp339PhoQ200), Tlp11[1-339]-PhoQ[201-486] (Tlp339PhoQ201), Tlp11[1-340]-PhoQ[202-486] (Tlp340PhoQ202), Tlp11[1-340]-PhoQ[200-486] (Tlp340PhoQ200), Tlp11[1-341]-PhoQ[202-486] (Tlp341PhoQ202), Tlp11[1-342]-PhoQ[[…]] (Tlp342PhoQ202), Tlp11[1-343]-PhoQ[202-486] (Tlp343PhoQ202), which connected Tlp11 and PhoQ in TM2 (Supplementary Figure S7C). The activity of each chimera in sensing methyl pyruvate was determined by measuring the fluorescence intensity of GFP in the E. coli MG1655/ΔPhoQ strain.

[5] = biological target: Tlp11-LBD; experiment: Microscale thermophoresis (MST) of Tlp11-LBD; assay type: binding, C. jejuni ATCC 33560
Procedure: as §1
MST quantifies interaction affinities by detecting the direct movement of fluorescent molecules along temperature gradients in capillaries. Ligand binding changes the thermophoretic movement of proteins, which can be used to derive Kds, by sequentially scanning capillaries with different ligand concentrations. MST has been applied to the study of weak binding systems and validated to provide reliable results ([Linke et al., 2016]; [Gao et al., 2021]). […] We also tested the binding abilities of methyl pyruvate analogues to Tlp11-LBD using MST (Supplementary Table S3).

[6] = tested on: C. jejuni 11168ΩTlp11/ΔCheY; assay type: cell-based, Campylobacter jejuni; details: 11168ΩTlp11/ΔCheY; microfluidic device
[7] = tested on: pin-head Tar (Tar without LBD) or WT Tar; experiment: Microfluidic chemotaxis of E. coli expressing pin-head Tar or WT Tar; assay type: cell-based, E. coli VS188; details: microfluidic device, 50 min
[8] = biological target: Tlp11-LBD homologue (WP_257425542.1, residues 31-331); experiment: MST of Tlp11-LBD homologue; assay type: binding, Campylobacter upsaliensis; details: C. upsaliensis LBD
Procedure: as §1, §2

[9] = biological target: Tlp11-LBD L264A; experiment: MST of Tlp11-LBD mutant L264A; assay type: binding, C. jejuni ATCC 33560; details: max ligand 2.5 mM
Procedure: as §1, §3

[10] = biological target: Tlp11-LBD homologue (WP_201459806.1, residues 32-332); experiment: MST of Tlp11-LBD homologue; assay type: binding, Campylobacter coli; details: C. coli LBD
Procedure: as §1, §2

COC(=O)C(C)=O [methyl pyruvate, Methyl pyruvate]
Kd [1]: 1200 ± 400 µM | Kd [2]: 1100 ± 300 µM | Kd (binding curve fit) [3]: unable to obtain fitted Kd values | response (GFP fluorescence intensity) of Tlp343PhoQ202 [4]: significant concentration-dependence | Kd ([5]; 250 nM protein, methyl pyruvate at pH 7.0, read-out: Kd of Tlp11-LBD binding): 688 ± 140 µM | Kd ([5]; Tlp11-LBD saturated with 5 mM quinoline, read-out: Kd of Tlp11-LBD interacting with methyl pyruvate): 3900 ± 1100 µM | Kd ([5]; Tlp11-LBD saturated with 5 mM toluene, read-out: Kd of Tlp11-LBD interacting with methyl pyruvate): 18000 ± 3000 µM | chemotactic response [6]: no chemotaxis | chemotactic response of E. coli expressing pin-head Tar or WT Tar as the sole chemoreceptor [7]: no response or a much weaker response | Kd [8]: 1900 ± 500 µM | Kd (binding curve fit) [9]: unable to obtain fitted Kd values | Kd [10]: 1400 ± 500 µM
